Columns and labels:
[1] = Pharmacokinetic study in rats; assay type: in vivo; details: for AUC(0-inf) / Cmax / MRT / Tmax / half-life: in vivo, suspension in 0.5% HPMC K4M
Experimental: (§1) The crystal form A of the p-tosylate of the compound was fully suspended in an aqueous solution of 0.5% HPMC (hydroxypropylmethyl cellulose) K4M, and then administered to rats by gavage at a dosage of 10 mg/kg and 30 mg/kg, with three rats in each parallel experiment. The amount of the compound was fully converted into the amount of an equivalent free base.

[2] = Pharmacokinetic study in dogs; assay type: in vivo, beagle dogs
Experimental: as §1, with “to beagle dogs” for “to rats”, “of 20” for “of 10”, “and a dose volume of 5 mL/kg,” for “and 30 mg/kg,”, “three dogs” for “three rats”

[3] = system: human chronic myeloid leukemia cell strain KCL22-s; assay: Efficacy on subcutaneous xenograft tumor model of KCL22-s; details: oral, dosing cycle 15 days
[4] = Dynamic vapor sorption experiment; assay type: physicochemical
Experimental: The crystal form A of the p-tosylate of the compound was placed in saturated water vapor with different relative humidities to reach a dynamic equilibrium between the compound and the water vapor, and the percentage of hygroscopic weight gain of the compound after reaching the equilibrium was calculated.

[5] = Thermodynamical stability experiment (polymorph screening by slurrying, XRPD); assay type: physicochemical
Experimental: An organic solvent with certain solubility was selected, and the crystal form A of the p-tosylate of the compound was suspended in the solvent system. The resulting system was slurried by stirring at room temperature for 2 weeks, and centrifuged. The supernatant was discarded. After the solid was dried under vacuum at 50°C (-0.1 MPa) for 16 h, the XRPD pattern of the solid was measured and compared with the XRPD of the salt of the starting compound.

[6] = as above; assay type: physicochemical; details: comparison of DSC patterns of crystal forms A-E
ABL1 WT kinase = ABL1 WT kinase (Homo sapiens, UniProt P00519); assay: In vitro inhibitory activity against ABL1 WT kinase (capillary electrophoresis, substrate peptide phosphorylation); assay type: biochemical; details: Maximum concentration 1 µM
Sequence of ABL1 WT kinase (P00519 whole entry): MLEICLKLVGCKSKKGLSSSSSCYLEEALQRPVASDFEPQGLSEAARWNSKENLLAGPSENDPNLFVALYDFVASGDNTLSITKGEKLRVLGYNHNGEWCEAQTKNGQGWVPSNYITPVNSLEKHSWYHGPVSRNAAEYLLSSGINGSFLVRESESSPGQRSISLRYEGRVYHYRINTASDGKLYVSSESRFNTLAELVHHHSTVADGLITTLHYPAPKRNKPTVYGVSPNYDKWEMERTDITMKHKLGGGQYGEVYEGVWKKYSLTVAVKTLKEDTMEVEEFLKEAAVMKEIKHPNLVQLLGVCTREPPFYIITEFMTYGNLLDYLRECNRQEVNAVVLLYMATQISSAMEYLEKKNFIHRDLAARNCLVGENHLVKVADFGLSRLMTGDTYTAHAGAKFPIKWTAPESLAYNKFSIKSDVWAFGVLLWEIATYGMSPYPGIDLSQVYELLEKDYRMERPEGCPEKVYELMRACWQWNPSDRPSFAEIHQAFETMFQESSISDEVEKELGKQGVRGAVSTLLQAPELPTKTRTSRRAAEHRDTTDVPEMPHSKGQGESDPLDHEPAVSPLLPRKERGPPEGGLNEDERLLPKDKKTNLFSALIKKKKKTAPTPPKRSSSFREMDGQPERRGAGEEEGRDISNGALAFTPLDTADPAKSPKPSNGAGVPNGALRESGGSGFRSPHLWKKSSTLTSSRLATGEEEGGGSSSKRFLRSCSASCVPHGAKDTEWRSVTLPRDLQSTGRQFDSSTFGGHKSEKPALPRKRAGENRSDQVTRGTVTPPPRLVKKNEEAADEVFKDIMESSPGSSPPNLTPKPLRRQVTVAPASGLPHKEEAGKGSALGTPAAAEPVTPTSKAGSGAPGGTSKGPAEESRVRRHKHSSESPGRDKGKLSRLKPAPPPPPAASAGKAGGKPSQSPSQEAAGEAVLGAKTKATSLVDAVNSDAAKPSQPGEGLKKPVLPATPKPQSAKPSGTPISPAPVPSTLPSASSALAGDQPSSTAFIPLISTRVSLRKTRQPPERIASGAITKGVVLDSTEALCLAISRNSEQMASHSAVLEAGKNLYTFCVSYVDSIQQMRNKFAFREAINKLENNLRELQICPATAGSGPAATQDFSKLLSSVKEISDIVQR
Experimental: Capillary electrophoresis was used to detect the phosphorylation conversion rate of the substrate peptide to determine the IC50 value of the test compound for inhibiting the kinase (ABL1-WT). The maximum concentration of the compound tested in the test was 1000 nM, with 3-fold dilution, and a total of 12 concentrations (1000 - 0.0056 nM). First, an enzyme reaction system (the concentration of enzyme ABL1-WT was 1.3 nM, the concentration of substrate FLPeptide2 was 1.5 µM, and the reaction factor was 10 mM MgCl2) was prepared. After incubation at room temperature for 30 min, 5 µL of 4×ATP solution was added to start the enzyme reaction. After reacting at room temperature for 90 min, the reaction was stopped by adding a stop buffer (containing 0.5 M EDTA). The sample was analyzed using an EZ reader (analysis conditions: pressure -1.5PSI, upper voltage current -2250V, lower voltage current -500V, separation time 40 sec, system delay 100.0 sec).
From the conversion rate read by EZ Reader, the remaining activity was calculated according to the following formula. Remaining Activity (%) = 100% × (CRSample −CRLC)/(CRHC −CRLC) [formula]
IC50 was calculated using XLfit, and IC50 was calculated by Formula 201 as the fitting formula.

Ba/F3 BCR-ABL1-E255K = assay: Inhibition of proliferation of BaF3 cells overexpressing BCR-ABL1 mutations (CellTiter-Glo); assay type: cell-based, Mouse; details: 72 h
Excerpt: (§2) The test objective was to evaluate the inhibitory activity of the compounds of the present invention against proliferation of the Ba/F3 BCR-ABL1-T315I, Ba/F3 BCR-ABL1-E255K, Ba/F3 BCR-ABL1-E255V, and Ba/F3 BCR-ABL1-G250E mutation models of mouse primary B cells cultured in vitro.
(§3) CellTiter-Glo® Luminescent Cell Viability Assay was used to detect the inhibitory effect of drugs on tumor cell proliferation and growth. The logarithmic growth phase cells cultured overnight were directly taken, pipetted up and down, mixed and counted, the cell density was adjusted according to different cell density requirements, and the cells were prepared into a cell suspension and plated on a 96-well plate. Drugs at different concentrations were added, 3 replicate wells were set for each concentration, and corresponding vehicle controls were set. The maximum test concentration in Ba/F3 BCR-ABL1-T315I and Ba/F3 BCR-ABL1-E255K cells was 10000 nM, with 3.16-fold gradient dilution and a total of 9 concentrations (10000-1.0058 nM). The maximum concentration of the compounds detected in other cells was 500 nM, with 3.16-fold gradient dilution, and a total of 9 concentrations (500-0.0503 nM). The cells with the compound being added were cultured for another 72 h at 37°C and 5% CO2. The culture plate and its contents were equilibrated to room temperature, the CellTiter-Glo® reagent was added, the contents were mixed on a shaker for 5 min to induce cell lysis, the culture plate was further incubated at room temperature in the dark for 20 min, and the luminescence was read with a microplate reader.

Ba/F3 BCR-ABL1-T315I = assay: as above; assay type: cell-based, Mouse; details: 72 h
Excerpt: as §2, §3

Ba/F3 BCR-ABL1-E255V = assay: as above; assay type: cell-based, Mouse; details: 72 h
Excerpt: as §2, §3

Ba/F3 BCR-ABL1-G250E = assay: as above; assay type: cell-based, Mouse; details: 72 h
Excerpt: as §2, §3

[7] = system: human erythroleukemia cells K562; assay: Inhibition of proliferation of tumor cell strains carrying BCR-ABL1 fusion mutations (CellTiter-Glo); assay type: cell-based; details: 72 h
Excerpt: (§4) The test objective was to evaluate the inhibitory activity of the compounds of the present invention against proliferation of human erythroleukemia cells K562, human peripheral blood basophilic leukemia cells Ku812, and human chronic granulocytic leukemia cells KCL22-s and KCL22-r cultured in vitro.
(§5) CellTiter-Glo® Luminescent Cell Viability Assay was used to detect the inhibitory effect of drugs on tumor cell proliferation and growth. The logarithmic growth phase cells cultured overnight were directly taken, pipetted up and down, mixed and counted, the cell density was adjusted according to different cell density requirements, and the cells were prepared into a cell suspension and plated on a 96-well plate. Drugs at different concentrations were added, three replicate wells were set for each concentration, and corresponding solvent controls were set. The maximum concentration of compound detected was 500 nM, with 3-fold gradient dilution, and a total of 9 concentrations (500-0.076 nM). The cells with the compound being added were cultured for another 72 h at 37°C and 5% CO2. The culture plate and its contents were equilibrated to room temperature, the CellTiter-Glo® reagent was added, the contents was mixed on a shaker for 3 min to induce cell lysis, the culture plate was further incubated at room temperature in the dark for 10 min, and the chemiluminescence signal value was determined by a microplate reader (BioTek SynergyH1).

[8] = system: human chronic granulocytic leukemia cells KCL22-s; assay: as above; assay type: cell-based; details: KCL22-s (imatinib-sensitive strain), 72 h
Excerpt: as §4, §5

[9] = system: human chronic granulocytic leukemia cells KCL22-r; assay: as above; assay type: cell-based; details: KCL22-r (imatinib-resistant strain), 72 h
Excerpt: as §4, §5

[10] = system: human peripheral blood basophilic leukemia cells Ku812; assay: as above; assay type: cell-based; details: 72 h
Excerpt: as §4, §5

[11] = dog, in vivo, po, beagle dogs, gavage 20 mg/kg, suspension in 0.5% HPMC K4M

## C[C@@H]1COC2NC=NC=C2c2cc(C(=O)Nc3ccc(OC(F)(F)Cl)cc3)cc3nc(C(F)F)n1c23 (some centres unmarked) [Crystal form A of p-tosylate]
[1]; Rat PO 10 mg/kg
  AUC(0-inf): 2600 ng·h/mL
  Cmax: 881 ng/mL
  MRT: 2.86 h
  Tmax: 1 h
  half-life: 3.55 h
[1]; Rat PO 30 mg/kg
  AUC(0-inf): 15600 ng·h/mL
  Cmax: 4510 ng/mL
  MRT: 2.97 h
  Tmax: 1 h
  half-life: 2.71 h
[2]; beagle dogs, gavage 20 mg/kg, suspension in 0.5% HPMC K4M
  F: 68.6%
[2]; [11]
  AUC(0-inf): 40400 ng·h/mL
  Cmax: 5720 ng/mL
  MRT: 5.47 h
  Tmax: 1.33 h
  half-life: 5.58 h

## Cc1ccc(NC(=O)c2ccc(CN3CCN(C)CC3)cc2)cc1Nc1nccc(-c2cccnc2)n1 [Imatinib]
[3]; 75 mg/kg qd
  T/C: 46.92%
  TGI: 56.03%

## (3R)-N-(4-(chlorodifluoromethoxy)phenyl)-2-(difluoromethyl)-3-methyl-3,4,5a,6-tetrahydro-5-oxa-1,2a,6,8-tetraazabenzo[4,5]cyclooctyl[1,2,3-cd]indene-11-carboxamide [crystal form A of the p-tosylate]
[1]; gavage, dose of 30 mg/kg
  pharmacokinetics in rats (in words): good metabolic properties
[4]; 2 cycles at relative humidity of 0-95%
  crystal form (XRPD pattern) after hygroscopic-dehygroscopic cycles: remained unchanged
[4]; at RH 80%
  hygroscopic weight gain: 0.3545%
[4]; conclusion in words
  stability in a humid environment: stable in a humid environment
[5]; Initial (before slurrying)
  Crystal form results: Form A
[5]; slurried in 2-butanone, room temperature, 2 weeks, XRPD
  Crystal form results: Form A
[5]; slurried in 2-methyltetrahydrofuran, room temperature, 2 weeks, XRPD
  Crystal form results: Form A
[5]; slurried in 3-pentanone, room temperature, 2 weeks, XRPD
  Crystal form results: Form A
[5]; slurried in Acetone, room temperature, 2 weeks, XRPD
  Crystal form results: Form A
[5]; slurried in Acetonitrile, room temperature, 2 weeks, XRPD
  Crystal form results: Form A
[5]; slurried in Chloroform, room temperature, 2 weeks, XRPD
  Crystal form results: Form A
[5]; slurried in Dichloromethane, room temperature, 2 weeks, XRPD
  Crystal form results: Form A
[5]; slurried in Ethanol, room temperature, 2 weeks, XRPD
  Crystal form results: Form A
[5]; slurried in Ethyl acetate, room temperature, 2 weeks, XRPD
  Crystal form results: Form A
[5]; slurried in Ethyl formate, room temperature, 2 weeks, XRPD
  Crystal form results: Form A
[5]; slurried in Isopropanol, room temperature, 2 weeks, XRPD
  Crystal form results: Form A
[5]; slurried in Isopropyl acetate, room temperature, 2 weeks, XRPD
  Crystal form results: Form A
[5]; slurried in Methanol, room temperature, 2 weeks, XRPD
  Crystal form results: Form A
[5]; slurried in Tetrahydrofuran, room temperature, 2 weeks, XRPD
  Crystal form results: Form A
[5]; slurried in Toluene, room temperature, 2 weeks, XRPD
  Crystal form results: Form A
[5]; slurried in n-heptane, room temperature, 2 weeks, XRPD
  Crystal form results: Form A
[2]; gavage, 20 mg/kg
  pharmacokinetics in dogs (in words): good metabolic properties, exposure dosage, and significantly improved bioavailability
[6]
  thermodynamic stability among crystal forms of the p-tosylate: the most thermodynamically stable crystal form among these crystal forms

## p-tosylate of (3R)-N-(4-(chlorodifluoromethoxy)phenyl)-2-(difluoromethyl)-3-methyl-3,4,5a,6-tetrahydro-5-oxa-1,2a,6,8-tetraazabenzo[4,5]cyclooctyl[1,2,3-ed]indene-11-carboxamide [Example 1]
ABL1 WT kinase
  IC50: 0.43 nM
Ba/F3 BCR-ABL1-E255K
  IC50: 26.3 nM
Ba/F3 BCR-ABL1-T315I
  IC50: 46.8 nM
Ba/F3 BCR-ABL1-E255V
  IC50: 7.15 nM
Ba/F3 BCR-ABL1-G250E
  IC50: 5.36 nM
[7]
  IC50: 13 nM
[8]
  IC50: 2.99 nM
[9]
  IC50: 14.6 nM
[10]
  IC50: 4.13 nM
[3]; 1.5 mg/kg bid
  T/C: 7.05%
  TGI: 98.20%
  Tumor volume: 143±35 mm^3
[3]; 3 mg/kg bid
  T/C: 0.69%
  TGI: 187.08%
  Tumor volume: 14±5 mm^3
[3]; 3 mg/kg qd
  T/C: 3.98%
  TGI: 127.26%
  Tumor volume: 81±19 mm^3
[3]; 7.5 mg/kg bid
  T/C: 0.52%
  TGI: 190.62%
  Tumor volume: 11±7 mm^3

From patent EP4692095A1, “SALT CRYSTAL FORM OF QUATERNARY FUSED RING COMPOUND, AND PREPARATION METHOD THEREFOR AND USE THEREOF” (Jiangsu Hansoh Pharmaceutical Group Co., Ltd., priority 2023, dated 2024)
